Where two headings read alike, the source gives them in different places.
Assay: in vitro
Format: in vitro ADME
Conditions: human
Outline: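 Caco-2 monolayers cultured 19 days on inserts (TEER >600 […]); bidirectional A-to-B and B-to-A transport at 37° C over 90 min, samples quantified by LC/MS/MS. Papp, efflux ratio and recovery calculated; ER >2 flags potential efflux substrates.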

[1] = Caco-2 monolayer, apical to basolateral, 90-minute incubation, read-out: Papp, A-B
[2] = Caco-2 monolayer, basolateral to apical, 90-minute incubation, read-out: Papp, B-A
[3] = Caco-2 monolayer, ER>2 indicates potential efflux transporter substrate, read-out: ER (efflux ratio)

Structure (SMILES) | Papp A→B at 90 min [1] | Papp B→A at 90 min [2] | efflux ratio at 90 min [3] | Papp A→B at 90 min (Caco-2) | Papp B→A at 90 min (Caco-2) | efflux ratio at 90 min (Caco-2)
CCC(=O)OC[C@H]1O[C@@](C#N)(c2ccc3c(N)ncnn23)[C@H](O)[C@@H]1O [Compound 15, ((2R,3S,4R,5R)-5-(4-aminopyrrolo[2,1-f][1,2,4]triazin-7-yl)-5-cyano-3,4-dihydroxytetrahydrofuran-2-yl)methyl propionate] | 2.9 ×10⁻⁶ cm/s | 7 ×10⁻⁶ cm/s | 3.4 |  |  | 
CC(C)(C(=O)OC[C@H]1O[C@@](C#N)(c2ccc3c(N)ncnn23)[C@H](O)[C@@H]1O)C1CCCCC1 [Compound 269, ((2R,3S,4R,5R)-5-(4-aminopyrrolo[2,1-f][1,2,4]triazin-7-yl)-5-cyano-3,4-dihydroxytetrahydrofuran-2-yl)methyl 2-cyclohexyl-2-methylpropanoate] |  |  |  | 15 ×10⁻⁶ cm/s | 20 ×10⁻⁶ cm/s | 1.3
CC(C)C(=O)O[C@H]1[C@@H](O)[C@](C#N)(c2ccc3c(N)ncnn23)O[C@@H]1COC(=O)[C@@H](N)C(C)C [Compound 38, ((2R,3S,4R,5R)-5-(4-aminopyrrolo[2,1-f][1,2,4]triazin-7-yl)-5-cyano-4-hydroxy-3-(isobutyryloxy)tetrahydrofuran-2-yl)methyl L-valinate] |  |  |  | 0.22 ×10⁻⁶ cm/s | 3.3 ×10⁻⁶ cm/s | 15
CCCCCOC(=O)Nc1ncnn2c([C@]3(C#N)O[C@H](CO)[C@@H](OC(=O)Cc4ccccc4)[C@H]3O)ccc12 [Compound 141, (2R,3S,4R,5R)-5-cyano-4-hydroxy-2-(hydroxymethyl)-5-(4-(((pentyloxy)carbonyl)amino)pyrrolo[2,1-f][1,2,4]triazin-7-yl)tetrahydrofuran-3-yl 2-phenylacetate] | 0.14 ×10⁻⁶ cm/s | 0.04 ×10⁻⁶ cm/s | 0.33 |  |  | 
CCCC(=O)Nc1ncnn2c([C@]3(C#N)O[C@H](COC(=O)CC4CCCCC4)[C@@H](OCOC(=O)C(C)(C)C)[C@H]3O)ccc12 [Compound 409, (((2R,3S,4R,5R)-5-(4-butyramidopyrrolo[2,1-f][1,2,4]triazin-7-yl)-5-cyano-2-((2-cyclohexylacetoxy)methyl)-4-hydroxytetrahydrofuran-3-yl)oxy)methyl pivalate] |  |  |  | 0.46 ×10⁻⁶ cm/s | 0.1 ×10⁻⁶ cm/s | 0.22
CC1(C)CCC(CC(=O)OC[C@H]2O[C@@](C#N)(c3ccc4c(N)ncnn34)[C@H](O)[C@@H]2O)CC1 [Compound 272, ((2R,3S,4R,5R)-5-(4-aminopyrrolo[2,1-f][1,2,4]triazin-7-yl)-5-cyano-3,4-dihydroxytetrahydrofuran-2-yl)methyl 2-(4,4-dimethylcyclohexyl)acetate] |  |  |  | 1.2 ×10⁻⁶ cm/s | 0.64 ×10⁻⁶ cm/s | 0.52
CC(C)CC(=O)O[C@H]1[C@@H](O)[C@](C#N)(c2ccc3c(N)ncnn23)O[C@@H]1COC(=O)CC1CCCCC1 [Compound 25, (2R,3S,4R,5R)-5-(4-aminopyrrolo[2,1-f][1,2,4]triazin-7-yl)-5-cyano-2-((2-cyclohexylacetoxy)methyl)-4-hydroxytetrahydrofuran-3-yl 3-methylbutanoate] |  |  |  | 56 ×10⁻⁶ cm/s | 42 ×10⁻⁶ cm/s | 0.7
CC(C)(C)C(=O)OCOC(=O)Nc1ncnn2c([C@]3(C#N)O[C@H](COC(=O)CC4(N)CCCCC4)[C@@H](O)[C@H]3O)ccc12 [Compound 367, (((7-((2R,3R,4S,5R)-5-((2-(1-aminocyclohexyl)acetoxy)methyl)-2-cyano-3,4-dihydroxytetrahydrofuran-2-yl)pyrrolo[2,1-f][1,2,4]triazin-4-yl)carbamoyl)oxy)methyl pivalate] |  |  |  | 2.8 ×10⁻⁶ cm/s | 1.6 ×10⁻⁶ cm/s | 0.57
CNc1nc(N)nc2c1ncn2[C@@H]1O[C@H](COC(C)=O)[C@@H](OC(=O)CC2CCCCC2)[C@@]1(C)F [Compound 194, (2R,3R,4R,5R)-2-(acetoxymethyl)-5-(2-amino-6-(methylamino)-9H-purin-9-yl)-4-fluoro-4-methyltetrahydrofuran-3-yl 2-cyclohexylacetate] |  |  |  | 12 ×10⁻⁶ cm/s | 2.1 ×10⁻⁶ cm/s | 0.18
CNc1nc(N)nc2c1ncn2[C@@H]1O[C@H](COC(=O)C(C)C)[C@@H](OC(=O)C(C)C)[C@@]1(C)F [Compound 227, (2R,3R,4R,5R)-5-(2-amino-6-(methylamino)-9H-purin-9-yl)-4-fluoro-2-((isobutyryloxy)methyl)-4-methyltetrahydrofuran-3-yl isobutyrate] |  |  |  | 8.5 ×10⁻⁶ cm/s | 3.2 ×10⁻⁶ cm/s | 0.4
CC(C)CC(=O)OC[C@H]1O[C@@](C#N)(c2ccc3c(N)ncnn23)[C@H](O)[C@@H]1OCOC(=O)C(C)(C)C [Compound 24, ((2R,3S,4R,5R)-5-(4-aminopyrrolo[2,1-f][1,2,4]triazin-7-yl)-5-cyano-4-hydroxy-3-((pivaloyloxy)methoxy)tetrahydrofuran-2-yl)methyl 3-methylbutanoate] |  |  |  | 8.1 ×10⁻⁶ cm/s | 3.6 ×10⁻⁶ cm/s | 0.44
CC(C)C(=O)Nc1ncnn2c([C@]3(C#N)O[C@H](COC(=O)Cc4ccccc4)[C@@H](OC(=O)[C@@H](N)C(C)C)[C@H]3O)ccc12 [Compound 347, (2R,3S,4R,5R)-5-cyano-4-hydroxy-5-(4-isobutyramidopyrrolo[2,1-f][1,2,4]triazin-7-yl)-2-((2-phenylacetoxy)methyl)tetrahydrofuran-3-yl L-valinate] | 7 ×10⁻⁶ cm/s | 17 ×10⁻⁶ cm/s | 2.4 |  |  | 
CCCCCOC(=O)Nc1ncnn2c([C@]3(C#N)O[C@H](CO)[C@@H](O)[C@H]3O)ccc12 [Compound 81, pentyl (7-((2R,3R,4S,5R)-2-cyano-3,4-dihydroxy-5-(hydroxymethyl)tetrahydrofuran-2-yl)pyrrolo[2,1-f][1,2,4]triazin-4-yl)carbamate] |  |  |  | 1 ×10⁻⁶ cm/s | 14.7 ×10⁻⁶ cm/s | 14
CCC(=O)O[C@@H]1[C@@H](COC(C)=O)O[C@@H](n2cnc3c(NC)nc(N)nc32)[C@]1(C)F [Compound 329, (2R,3R,4R,5R)-2-(acetoxymethyl)-5-(2-amino-6-(methylamino)-9H-purin-9-yl)-4-fluoro-4-methyltetrahydrofuran-3-yl propionate] |  |  |  | 16 ×10⁻⁶ cm/s | 18 ×10⁻⁶ cm/s | 1.1
CC(C)[C@H](N)C(=O)O[C@H]1[C@@H](OC(=O)[C@@H](N)C(C)C)[C@](C#N)(c2ccc3c(N)ncnn23)O[C@@H]1COC(=O)Cc1ccccc1 [Compound 351, (2R,3R,4R,5R)-2-(4-aminopyrrolo[2,1-f][1,2,4]triazin-7-yl)-2-cyano-5-((2-phenylacetoxy)methyl)tetrahydrofuran-3,4-diyl (2S,2'S)-bis(2-amino-3-methylbutanoate)] | 0.17 ×10⁻⁶ cm/s | 0.92 ×10⁻⁶ cm/s | 5.5 |  |  | 
CCCC(=O)Nc1ncnn2c([C@]3(C#N)O[C@H](COC(=O)Cc4ccccc4)[C@@H](OC(=O)[C@@H](N)C(C)C)[C@H]3O)ccc12 [Compound 346, (2R,3S,4R,5R)-5-(4-butyramidopyrrolo[2,1-f][1,2,4]triazin-7-yl)-5-cyano-4-hydroxy-2-((2-phenylacetoxy)methyl)tetrahydrofuran-3-yl L-valinate] | 1.6 ×10⁻⁶ cm/s | 9 ×10⁻⁶ cm/s | 5.7 |  |  | 
CCC(=O)OC[C@H]1O[C@@](C#N)(c2ccc3c(N)ncnn23)[C@H](O)[C@@H]1OC(=O)[C@@H](N)C(C)C [Compound 67, (2R,3S,4R,5R)-5-{4-aminopyrrolo[2,1-f][1,2,4]triazin-7-yl}-5-cyano-4-hydroxy-2-[(propanoyloxy)methyl]oxolan-3-yl(2S)-2-amino-3-methylbutanoate] |  |  |  | 0.3 ×10⁻⁶ cm/s | 0.1 ×10⁻⁶ cm/s | 0.33
CCC(=O)OC[C@H]1O[C@@H](n2cnc3c(NC)nc(N)nc32)[C@](C)(F)[C@@H]1OC(C)=O [Compound 220, ((2R,3R,4R,5R)-3-acetoxy-5-(2-amino-6-(methylamino)-9H-purin-9-yl)-4-fluoro-4-methyltetrahydrofuran-2-yl)methyl propionate] |  |  |  | 20 ×10⁻⁶ cm/s | 13 ×10⁻⁶ cm/s | 0.64
N#C[C@@]1(c2ccc3c(N)ncnn23)O[C@H](COC(=O)CC2CCNCC2)[C@@H](O)[C@H]1O [Compound 267] |  |  |  | 0.42 ×10⁻⁶ cm/s | 0.27 ×10⁻⁶ cm/s | 0.65
N#C[C@@]1(c2ccc3c(N)ncnn23)O[C@H](COC(=O)CC2CCC3(CCCC3)CC2)[C@@H](O)[C@H]1O [Compound 279, ((2R,3S,4R,5R)-5-(4-aminopyrrolo[2,1-f][1,2,4]triazin-7-yl)-5-cyano-3,4-dihydroxytetrahydrofuran-2-yl)methyl 2-(spiro[4.5]decan-8-yl)acetate] |  |  |  | 1.4 ×10⁻⁶ cm/s | 0.9 ×10⁻⁶ cm/s | 0.64
CCC(=O)O[C@H]1[C@@H](O)[C@](C#N)(c2ccc3c(NC(=O)C(C)C)ncnn23)O[C@@H]1COC(=O)[C@@H](N)C(C)C [Compound 362, ((2R,3S,4R,5R)-5-cyano-4-hydroxy-5-(4-isobutyramidopyrrolo[2,1-f][1,2,4]triazin-7-yl)-3-(propionyloxy)tetrahydrofuran-2-yl)methyl L-valinate] |  |  |  | 4.6 ×10⁻⁶ cm/s | 6.7 ×10⁻⁶ cm/s | 1.5
CCCCC(=O)Nc1ncnn2c([C@]3(C#N)O[C@H](COC(=O)[C@@H](N)C(C)C)[C@@H](O)[C@H]3O)ccc12 [Compound 341, ((2R,3S,4R,5R)-5-cyano-3,4-dihydroxy-5-(4-pentanamidopyrrolo[2,1-f][1,2,4]triazin-7-yl)tetrahydrofuran-2-yl)methyl L-valinate] |  |  |  | 0.13 ×10⁻⁶ cm/s | 2.3 ×10⁻⁶ cm/s | 18

Source: patent US12102648B2, “Orally-bioavailable nucleoside analogs” (priority 2021, dated 2024)
